Assay results: ChEMBL document CHEMBL4033684, “Development of nonsteroidal glucocorticoid receptor modulators based on N-benzyl-N-(4-phenoxyphenyl)benzenesulfonamide scaffold” (Bioorg Med Chem, 2017)
pIC50: −log10 of the molar value. The source made the active and inactive calls. The calls are words filed in the database; no cut-off is given here.

How the values were obtained:
Assay type in all cases: cell-based
[1] = target: T1, Glucocorticoid receptor (Homo sapiens, UniProt P04150); assay: Transactivation of human GRalpha expressed in HEK293 cells after 24 hrs by luciferase reporter gene assay; conditions: hek293, 24 h
T1 sequence (P04150 whole entry): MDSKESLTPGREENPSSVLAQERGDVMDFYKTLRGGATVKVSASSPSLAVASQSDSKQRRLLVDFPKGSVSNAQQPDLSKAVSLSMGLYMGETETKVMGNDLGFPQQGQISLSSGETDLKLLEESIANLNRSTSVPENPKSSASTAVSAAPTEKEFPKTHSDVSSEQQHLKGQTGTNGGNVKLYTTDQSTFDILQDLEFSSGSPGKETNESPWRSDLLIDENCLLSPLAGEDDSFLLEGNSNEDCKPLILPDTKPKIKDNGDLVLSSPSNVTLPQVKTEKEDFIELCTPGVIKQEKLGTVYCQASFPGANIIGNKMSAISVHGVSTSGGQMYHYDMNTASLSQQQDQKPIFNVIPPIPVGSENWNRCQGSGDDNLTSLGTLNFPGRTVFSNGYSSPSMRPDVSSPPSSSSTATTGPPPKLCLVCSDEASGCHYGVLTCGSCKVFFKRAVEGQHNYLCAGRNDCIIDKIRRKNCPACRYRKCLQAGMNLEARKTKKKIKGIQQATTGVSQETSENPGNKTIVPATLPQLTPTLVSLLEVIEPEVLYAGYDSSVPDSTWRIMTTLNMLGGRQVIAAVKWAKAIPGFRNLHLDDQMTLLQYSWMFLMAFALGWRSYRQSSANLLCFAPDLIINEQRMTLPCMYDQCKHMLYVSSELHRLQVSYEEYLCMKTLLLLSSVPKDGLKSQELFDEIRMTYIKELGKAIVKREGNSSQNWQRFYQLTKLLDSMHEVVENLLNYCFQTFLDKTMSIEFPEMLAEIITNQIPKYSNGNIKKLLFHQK

[2] = target: T1, Glucocorticoid receptor; assay: (§1) Antagonist activity at human GRalpha expressed in HEK293 cells assessed as inhibition of dexamethasone-induced response after 24 hrs by luciferase reporter gene assay
[3] = target: T2, Glucocorticoid receptor (Homo sapiens) (UniProt P04150); assay: Transrepression of human GRalpha expressed in HEK293 cells co-expressing pGL4.32 assessed as inhibition of TNFalpha-stimulated NF-kB activity at 30 uM preincubated for 4 hrs followed by TNFalpha addition measured after 3 hrs by luciferase reporter gene assay relative to control
T2 sequence (whole entry): T1 sequence (P04150 whole entry)

[4] = target: T2, Glucocorticoid receptor (Homo sapiens); assay: Antagonist activity at human GRalpha expressed in HEK293 cells assessed as inhibition of dexamethasone-induced response at 30 uM after 24 hrs by luciferase reporter gene assay relative to control
[5] = target: T2, Glucocorticoid receptor (Homo sapiens); assay: as §1

SMILES	Activity [1]	pIC50 [2]	inhibition [3]	inhibition [4]	inhibition [5]
O=S(=O)(c1ccc(F)cc1)N(Cc1ccccc1)c1ccc(Oc2ccccc2)cc1	Not Active	5.69			
Nc1ccc(S(=O)(=O)N(Cc2ccccc2)c2ccc(Oc3ccccc3)cc2)cc1	Not Active	5.50	64%		
O=S(=O)(c1ccc(Br)cc1)N(Cc1ccccc1)c1ccc(Oc2ccccc2)cc1	Not Active	< 4.52		< 50%	
N#Cc1ccc(S(=O)(=O)N(Cc2cccc(Cl)c2)c2ccc(Oc3ccccc3)cc2)cc1	Not Active	5.27			
O=S(=O)(c1ccc(S(F)(F)(F)(F)F)cc1)N(Cc1ccccc1)c1ccc(Oc2ccccc2)cc1	Not Active	< 4.52		< 50%	
CC(=O)Nc1ccc(S(=O)(=O)N(Cc2ccccc2)c2ccc(Oc3ccccc3)cc2)cc1	Not Active	5.71	60%		
N#Cc1ccc(S(=O)(=O)N(Cc2ccccc2Cl)c2ccc(Oc3ccccc3)cc2)cc1	Not Active	< 4.52			
N#Cc1ccc(S(=O)(=O)N(CCc2ccccc2)c2ccc(Oc3ccccc3)cc2)cc1	Not Active	< 4.52		< 50%	
O=[N+]([O-])c1ccc(S(=O)(=O)N(Cc2ccccc2)c2ccc(Oc3ccccc3)cc2)cc1	Not Active	5.24			
N#Cc1ccc(S(=O)(=O)N(Cc2ccc(Cl)cc2)c2ccc(Oc3ccccc3)cc2)cc1	Not Active	< 4.52		< 50%	
CN(C)c1ccc(S(=O)(=O)N(Cc2ccccc2)c2ccc(Oc3ccccc3)cc2)cc1	Not Active		inactive		
Cc1ccc(CN(c2ccc(Oc3ccccc3)cc2)S(=O)(=O)c2ccc(C#N)cc2)cc1	Not Active	< 4.52		< 50%	
N#Cc1cccc(S(=O)(=O)N(Cc2ccccc2)c2ccc(Oc3ccccc3)cc2)c1	Not Active			inactive	
O=S(=O)(Nc1ccc(Oc2ccccc2)cc1)c1cccc(C(F)(F)F)c1	Not Active	4.93			
COc1cccc(Oc2ccc(N(Cc3ccccc3)S(=O)(=O)c3ccc(C#N)cc3)cc2)c1	Not Active			inactive	
N#Cc1ccc(S(=O)(=O)N(CC2CC2)c2ccc(Oc3ccccc3)cc2)cc1	Not Active			inactive	
O=S(=O)(c1ccccc1)N(Cc1ccccc1)c1ccc(Oc2ccccc2)cc1	Not Active	5.44			
N#Cc1ccc(S(=O)(=O)N(CCCc2ccccc2)c2ccc(Oc3ccccc3)cc2)cc1	Not Active	< 4.52		< 50%	
Nc1ccccc1S(=O)(=O)N(Cc1ccccc1)c1ccc(Oc2ccccc2)cc1	Not Active		46%		

Next, values leading:

Activity [1]	pIC50 [2]	inhibition [3]	inhibition [4]	inhibition [5]	SMILES
Not Active	5.62				O=S(=O)(c1ccc(Cl)cc1)N(Cc1ccccc1)c1ccc(Oc2ccccc2)cc1
Not Active		inactive			CCNc1ccc(S(=O)(=O)N(Cc2ccccc2)c2ccc(Oc3ccccc3)cc2)cc1
Not Active	< 4.52		< 50%		N#Cc1ccccc1S(=O)(=O)N(Cc1ccccc1)c1ccc(Oc2ccccc2)cc1
Not Active			inactive		CC(C)(C)c1ccc(CN(c2ccc(Oc3ccccc3)cc2)S(=O)(=O)c2ccc(C#N)cc2)cc1
Not Active			inactive		COc1ccccc1Oc1ccc(N(Cc2ccccc2)S(=O)(=O)c2ccc(C#N)cc2)cc1
Not Active	5.69				Cc1ccc(S(=O)(=O)N(Cc2ccccc2)c2ccc(Oc3ccccc3)cc2)cc1
Not Active		inactive			CNc1ccc(S(=O)(=O)N(Cc2ccccc2)c2ccc(Oc3ccccc3)cc2)cc1
Not Active			inactive		COc1ccc(CN(c2ccc(Oc3ccccc3)cc2)S(=O)(=O)c2ccc(C#N)cc2)cc1
Not Active	< 4.52		< 50%		O=S(=O)(c1ccc(C(F)(F)F)cc1)N(Cc1ccccc1)c1ccc(Oc2ccccc2)cc1
Not Active	< 4.52		< 50%		CC(C)(C)c1ccc(S(=O)(=O)N(Cc2ccccc2)c2ccc(Oc3ccccc3)cc2)cc1
Not Active	< 4.52		< 50%		N#Cc1ccc(S(=O)(=O)N(Cc2cccc3ccccc23)c2ccc(Oc3ccccc3)cc2)cc1
Not Active	< 4.52		< 50%		N#Cc1ccc(S(=O)(=O)N(Cc2ccc(F)cc2)c2ccc(Oc3ccccc3)cc2)cc1
Not Active		inactive			CCN(CC)c1ccc(S(=O)(=O)N(Cc2ccccc2)c2ccc(Oc3ccccc3)cc2)cc1
Not Active	5.73				COc1ccc(S(=O)(=O)N(Cc2ccccc2)c2ccc(Oc3ccccc3)cc2)cc1
Not Active	5.68	32%			COC(=O)Nc1ccc(S(=O)(=O)N(Cc2ccccc2)c2ccc(Oc3ccccc3)cc2)cc1
Not Active	5.13				O=S(=O)(c1ccc(OC(F)(F)F)cc1)N(Cc1ccccc1)c1ccc(Oc2ccccc2)cc1
Not Active	5.10				N#Cc1ccc(S(=O)(=O)N(Cc2ccc(Br)cc2)c2ccc(Oc3ccccc3)cc2)cc1
Not Active				inactive	COc1cccc(C(=O)Nc2ccc(Oc3ccc(O)cc3)c(C)c2)c1
Not Active	< 4.52		< 50%		N#Cc1ccc(S(=O)(=O)N(Cc2ccc3ccccc3c2)c2ccc(Oc3ccccc3)cc2)cc1
Not Active	< 4.52		< 50%		COc1ccc(Oc2ccc(N(Cc3ccccc3)S(=O)(=O)c3ccc(C#N)cc3)cc2)cc1
Not Active		39%			Nc1cccc(S(=O)(=O)N(Cc2ccccc2)c2ccc(Oc3ccccc3)cc2)c1
